Results taken from US20040014030A1, “Enzymatic assay of HIV protease inhibitors” (priority 2002, published 2004).
Where a SMILES comes first, the peptide text is derived from it.

Target: T1, HIV-1 protease (Human immunodeficiency virus type 1 group M subtype B, UniProt P04585)
T1 construct: the enzyme HIV-1 protease; purchased BACHEM AMERICAS (King of Prussia, Pa.)
Experiment: Kinetic parameter determination: hydrolysis of chromogenic substrate by HIV-1 PR monitored at 300 nm
Assay type: biochemical
Settings: substrate hydrolysis by HIV-1 PR, 25° C., pH 4.9 assay buffer
Description: The synthetic chromogenic substrate, H-His-Lys-Ala-Arg-Val-Leu*Nph-Glu-Ala-Nle-Ser-NH2 (SEQ ID NO:3) and the enzyme HIV-1 protease (0.65 milligrams per milliliter (mg/mL), 16 International Units per milligram (IU/mg)) were purchased from BACHEM AMERICAS (King of Prussia, Pa.).
A stock solution containing 1 mg/mL of the chromogenic substrate in HIV PR assay buffer (50 millimolar (mM) sodium acetate, pH 4.9, 200 mM NaCl, 5 mM diothiothreitol (DTT), 10% (v/v) glycerol) was prepared by dissolving 5 mg chromogenic substrate in 5 mL of assay buffer. A substrate solution at a concentration of 101 micromolar (μM) was prepared in HIV-PR assay buffer from the substrate stock in a sample cup of Roche COBAS FARA. The stock mixture of HIV-1 PR as received was then diluted by 20-fold into this mixture. The hydrolysis of substrate by HIV-1 PR was monitored at 300 nm at 25° C. on a ROCHE DIAGNOSTICS COBAS FARA instrument.
A stock solution containing the chromogenic substrate at a concentration of 3 mg/mL was prepared by dissolving 5 mg chromogenic substrate in 1.67 mL of the assay buffer as described in Example 1. A series of substrate solutions were prepared in the HIV-PR assay buffer over the concentration range of 0-2282 μM. The stock solution of HIV-1 PR was then diluted by 20-fold into HIV PR assay buffer. The hydrolysis of substrate by HIV-1 PR was monitored at 300 nm at 25° C. on a ROCHE DIAGNOSTICS COBAS FARA instrument, as described in Example 1.

CCCC[C@H](NC(=O)[C@H](C)NC(=O)[C@H](CCC(=O)O)NC(=O)[C@H](Cc1ccc([N+](=O)[O-])cc1)NC(=O)[C@H](CC(C)C)NC(=O)[C@@H](NC(=O)[C@H](CCCNC(=N)N)NC(=O)[C@H](C)NC(=O)[C@H](CCCCN)NC(=O)[C@@H](N)Cc1c[nH]cn1)C(C)C)C(=O)N[C@@H](CO)C(N)=O [chromogenic substrate, H-His-Lys-Ala-Arg-Val-Leu*Nph-Glu-Ala-Nle-Ser-NH2] (HELM PEPTIDE1{H.K.A.R.V.L.[O=C([C@H](Cc1ccc([N+](=O)[O-])cc1)N[*:1])[*:2]].E.A.[Nle].S.[am]}$$$$V2.0)
apparent Vmax: 156.81 µmol/mg/min | apparent kcat: 58.02 s⁻¹ | Km (substrate 0-2282 μM, read-out: apparent Km): 67 ± 7.55 µM
